Laboratory results published in the supplement of paper PMC10883282.
± gives the standard deviation of the averaged measurements.

Experiments:
Test in all cases: relative viability vs DMSO control (72 h) (fraction); higher = more viable cells
KHOS-240S = system: KHOS-240S
Method in brief: (§1)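 Relative viability was measured with ATPLite and expressed as percent growth, averaged across up to triplicate wells. Sarcoma cell lines had been seeded in 384-well plates to reach 80–90% confluence, dosed after 24 h, and incubated 72 h at 37 °C, 5% CO2. All data were rescaled on a scale where 1 is full and 0 is none.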

RD = system: RD
Method in brief: as §1

SYO-1 = system: SYO-1
Method in brief: as §1

MES-SA = system: MES-SA
Method in brief: as §1

SW1353 = system: SW1353
Method in brief: as §1

SW982 = system: SW982
Method in brief: as §1

VA-ES-BJ = system: VA-ES-BJ
Method in brief: as §1

HT1080 = system: HT1080
Method in brief: as §1

SK-LMS-1 = system: SK-LMS-1
Method in brief: as §1

RD-ES = system: RD-ES
Method in brief: as §1

G401 = system: G401
Method in brief: as §1

SK-ES-1 = system: SK-ES-1
Method in brief: as §1

COCCNc1cc(NC(=O)N2CCCc3cc(CN4CCN(C)CC4=O)c(C=O)nc32)ncc1C#N [Roblitinib]
Settings	relative viability
G401, 0.00017 µM	0.974 ± 0.018
G401, 0.00051 µM	0.955 ± 0.034
G401, 0.00152 µM	0.929 ± 0.012
G401, 0.00457 µM	0.9122 ± 0.0064
G401, 0.01372 µM	0.943 ± 0.012
G401, 0.04115 µM	0.93 ± 0.036
G401, 0.1235 µM	0.96 ± 0.047
G401, 0.3704 µM	0.967 ± 0.069
G401, 1.111 µM	0.943 ± 0.033
G401, 3.333 µM	0.935 ± 0.038
G401, 10 µM	0.8671 ± 0.0083
HT1080, 0.00017 µM	1 ± 0.018
HT1080, 0.00051 µM	1.04 ± 0.014
HT1080, 0.00152 µM	0.971 ± 0.013
HT1080, 0.00457 µM	0.9973 ± 0.0052
HT1080, 0.01372 µM	0.951 ± 0.034
HT1080, 0.04115 µM	1.04 ± 0.04
HT1080, 0.1235 µM	1.05 ± 0.072
HT1080, 0.3704 µM	1.07 ± 0.033
HT1080, 1.111 µM	0.952 ± 0.022
HT1080, 3.333 µM	1.029 ± 0.0021
HT1080, 10 µM	0.997 ± 0.052
KHOS-240S, 0.00017 µM	1.04 ± 0.029
KHOS-240S, 0.00051 µM	1.04 ± 0.032
KHOS-240S, 0.00152 µM	1.026 ± 0.0035
KHOS-240S, 0.00457 µM	1.04 ± 0.021
KHOS-240S, 0.01372 µM	1.02 ± 0.019
KHOS-240S, 0.04115 µM	1.03 ± 0.0099
KHOS-240S, 0.1235 µM	1.035 ± 0.0076
KHOS-240S, 0.3704 µM	1.03 ± 0.028
KHOS-240S, 1.111 µM	1 ± 0.017
KHOS-240S, 3.333 µM	0.963 ± 0.034
KHOS-240S, 10 µM	0.967 ± 0.055
MES-SA, 0.00017 µM	0.912 ± 0.035
MES-SA, 0.00051 µM	0.892 ± 0.015
MES-SA, 0.00152 µM	0.878 ± 0.04
MES-SA, 0.00457 µM	0.885 ± 0.056
MES-SA, 0.01372 µM	0.883 ± 0.017
MES-SA, 0.04115 µM	0.884 ± 0.024
MES-SA, 0.1235 µM	0.879 ± 0.039
MES-SA, 0.3704 µM	0.889 ± 0.055
MES-SA, 1.111 µM	0.882 ± 0.034
MES-SA, 3.333 µM	0.839 ± 0.069
MES-SA, 10 µM	0.79 ± 0.021
RD, 0.00017 µM	1.08 ± 0.043
RD, 0.00051 µM	1.074 ± 0.0052
RD, 0.00152 µM	1.053 ± 0.0062
RD, 0.00457 µM	1.08 ± 0.026
RD, 0.01372 µM	1.08 ± 0.026
RD, 0.04115 µM	1.09 ± 0.019
RD, 0.1235 µM	1.1 ± 0.012
RD, 0.3704 µM	1.118 ± 0.0069
RD, 1.111 µM	1.04 ± 0.019
RD, 3.333 µM	1.08 ± 0.033
RD, 10 µM	1.01 ± 0.056
RD-ES, 0.00017 µM	0.972 ± 0.016
RD-ES, 0.00051 µM	0.981 ± 0.023
RD-ES, 0.00152 µM	0.986 ± 0.033
RD-ES, 0.00457 µM	0.965 ± 0.03
RD-ES, 0.01372 µM	0.968 ± 0.025
RD-ES, 0.04115 µM	0.9621 ± 0.0066
RD-ES, 0.1235 µM	0.958 ± 0.027
RD-ES, 0.3704 µM	0.952 ± 0.03
RD-ES, 1.111 µM	0.936 ± 0.019
RD-ES, 3.333 µM	0.884 ± 0.037
RD-ES, 10 µM	0.867 ± 0.059
SK-ES-1, 0.00017 µM	0.964 ± 0.035
SK-ES-1, 0.00051 µM	0.979 ± 0.019
SK-ES-1, 0.00152 µM	0.986 ± 0.023
SK-ES-1, 0.00457 µM	0.974 ± 0.022
SK-ES-1, 0.01372 µM	1.03 ± 0.032
SK-ES-1, 0.04115 µM	0.973 ± 0.032
SK-ES-1, 0.1235 µM	1.02 ± 0.047
SK-ES-1, 0.3704 µM	0.985 ± 0.026
SK-ES-1, 1.111 µM	0.92 ± 0.015
SK-ES-1, 3.333 µM	0.916 ± 0.019
SK-ES-1, 10 µM	0.74 ± 0.018
SK-LMS-1, 0.00017 µM	0.941 ± 0.02
SK-LMS-1, 0.00051 µM	0.942 ± 0.05
SK-LMS-1, 0.00152 µM	0.932 ± 0.029
SK-LMS-1, 0.00457 µM	0.957 ± 0.023
SK-LMS-1, 0.01372 µM	0.938 ± 0.027
SK-LMS-1, 0.04115 µM	0.988 ± 0.013
SK-LMS-1, 0.1235 µM	0.921 ± 0.016
SK-LMS-1, 0.3704 µM	0.995 ± 0.023
SK-LMS-1, 1.111 µM	0.984 ± 0.044
SK-LMS-1, 3.333 µM	0.883 ± 0.032
SK-LMS-1, 10 µM	0.858 ± 0.061
SW982, 0.00017 µM	1.013 ± 0.0057
SW982, 0.00051 µM	0.995 ± 0.019
SW982, 0.00152 µM	0.991 ± 0.02
SW982, 0.00457 µM	1.03 ± 0.04
SW982, 0.01372 µM	0.992 ± 0.016
SW982, 0.04115 µM	1.03 ± 0.051
SW982, 0.1235 µM	0.992 ± 0.018
SW982, 0.3704 µM	1.03 ± 0.04
SW982, 1.111 µM	1.03 ± 0.023
SW982, 3.333 µM	1.01 ± 0.065
SW982, 10 µM	0.9846 ± 0.0093
SW1353, 0.00017 µM	0.959 ± 0.041
SW1353, 0.00051 µM	0.935 ± 0.031
SW1353, 0.00152 µM	0.899 ± 0.032
SW1353, 0.00457 µM	0.95 ± 0.067
SW1353, 0.01372 µM	0.953 ± 0.032
SW1353, 0.04115 µM	0.953 ± 0.029
SW1353, 0.1235 µM	0.942 ± 0.036
SW1353, 0.3704 µM	0.958 ± 0.033
SW1353, 1.111 µM	0.922 ± 0.027
SW1353, 3.333 µM	0.949 ± 0.014
SW1353, 10 µM	0.961 ± 0.014
SYO-1, 0.00017 µM	0.933 ± 0.019
SYO-1, 0.00051 µM	0.931 ± 0.022
SYO-1, 0.00152 µM	0.9221 ± 0.0044
SYO-1, 0.00457 µM	0.92 ± 0.03
SYO-1, 0.01372 µM	0.914 ± 0.049
SYO-1, 0.04115 µM	0.889 ± 0.022
SYO-1, 0.1235 µM	0.879 ± 0.036
SYO-1, 0.3704 µM	0.855 ± 0.059
SYO-1, 1.111 µM	0.867 ± 0.052
SYO-1, 3.333 µM	0.845 ± 0.061
SYO-1, 10 µM	0.87 ± 0.099
VA-ES-BJ, 0.00017 µM	1.03 ± 0.029
VA-ES-BJ, 0.00051 µM	1.01 ± 0.026
VA-ES-BJ, 0.00152 µM	1 ± 0.02
VA-ES-BJ, 0.00457 µM	1.02 ± 0.017
VA-ES-BJ, 0.01372 µM	1.02 ± 0.015
VA-ES-BJ, 0.04115 µM	1.03 ± 0.025
VA-ES-BJ, 0.1235 µM	1.04 ± 0.011
VA-ES-BJ, 0.3704 µM	1.03 ± 0.043
VA-ES-BJ, 1.111 µM	1.04 ± 0.026
VA-ES-BJ, 3.333 µM	0.999 ± 0.072
VA-ES-BJ, 10 µM	0.968 ± 0.073
